Measurements published in PubChem BioAssay (NCI).
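Exposure lasted 48 hours, with cells grown in 96-well plates and compounds tested at five concentrations. GI50 is the concentration that inhibits growth by half. At the TGI there is no net growth.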

What was measured:
Assay in all cases: NCI-60 cell line screen, 48 h
MCF7 breast = test system: MCF7 breast
IGROV1 ovarian = test system: IGROV1 ovarian
SF-268 CNS = test system: SF-268 CNS
A498 renal = test system: A498 renal
CAKI-1 renal = test system: CAKI-1 renal
SW-620 colon = test system: SW-620 colon
U251 CNS = test system: U251 CNS
ACHN renal = test system: ACHN renal
HS 578T breast = test system: HS 578T breast
SNB-19 CNS = test system: SNB-19 CNS

SMILES	GI50 (MCF7 breast) [µM]	TGI (MCF7 breast) [µM]	GI50 (IGROV1 ovarian) [µM]	TGI (IGROV1 ovarian) [µM]	GI50 (SF-268 CNS) [µM]	TGI (SF-268 CNS) [µM]	GI50 (A498 renal) [µM]	TGI (A498 renal) [µM]	GI50 (CAKI-1 renal) [µM]	TGI (CAKI-1 renal) [µM]	GI50 (SW-620 colon) [µM]	TGI (SW-620 colon) [µM]	GI50 (U251 CNS) [µM]	TGI (U251 CNS) [µM]	GI50 (ACHN renal) [µM]	TGI (ACHN renal) [µM]	GI50 (HS 578T breast) [µM]	TGI (HS 578T breast) [µM]	GI50 (SNB-19 CNS) [µM]	TGI (SNB-19 CNS) [µM]
Oc1[nH]c2ccccc2c1/C=c1/cc2c(c(-c3ccc(C(F)(F)F)cc3)n1)=Nc1ccccc1-2	1.53	5.14	8.25	28.8	10.3	38.8	5.2	38.6	3.96	27.5	2.4	13	4.46	18.3	2.72	11.5	10.3	69.9	6.81	> 100
O=C1CSC2(CC(/C=C/c3ccccc3Br)=NN2c2cccc(S(=O)(=O)O)c2)N1c1nc2ccccc2s1 (stereo not given)		> 100		> 100		> 100		> 100		> 100		> 100		> 100		> 100		> 100		> 100
C/C(=N\Nc1ccccc1)C(CN(C)C)C(c1ccccc1)c1c(O)c2ccccc2oc1=O (stereo not given)		> 100		> 100		> 100		> 100		> 100		> 100		> 100		> 100		> 100		> 100
CC(=O)c1ccc(NC(=O)CSc2nc(C)nc3c2sc(=S)n3-c2ccccc2)cc1		> 10		> 3.16		> 3.16		> 3.16		> 3.16		> 3.16		> 3.16		> 3.16		> 3.16		> 3.16
CC12CC(c3ccccc3O1)C(C(=O)Nc1cccc(F)c1)C(=O)N2 (stereo not given)		> 100		> 100		> 100		> 100		> 100		> 100		> 100		> 100		> 100		> 100
COC(=O)C(C(=O)C(=O)NC1Nc2ccc(C)cc2S1)c1nc2ccc(Cl)cc2[nH]c1=O (stereo not given)		> 100		> 100		> 100		> 100		> 100		> 100		> 100		> 100		> 100		> 100
O=C1OI(C#Cc2ccccc2)c2ccccc21		14.9		6.17		9.96		16.4		6.5		5.14		6.13		5.42		26.6		21.8
NC(=S)N/N=C\CC(O)(C(F)(F)F)C(F)(F)F		> 10		> 10		> 10		> 10		> 10		> 10		> 10		> 10		> 10		> 10
CCN(CC)CCN(C)CCc1ccc(Br)cc1		> 100		> 100		> 100		60.4		> 100		> 100		> 100		> 100		> 100		> 100
CCCNC(=O)CCC(C)[C@H]1CCC2C3C(C[C@H](OC(C)=O)[C@@]21C)[C@@]1(C)CCC2(C[C@H]1C[C@H]3OC(C)=O)OOC1(CCCCC1)OO2 (stereo not given in full)		> 56.1		2.22		10.4		50.1		1.54		> 75.5		3.84		2.62		> 53		> 100
O=C1CC2(CCNCC2)C(=O)N1N1CCOCC1		> 100		> 100		> 100		> 100		> 100		> 100		> 100		> 100		> 100		> 100
CCOC(=O)/C(C#N)=C/N(CC)/N=C/c1ccccc1		> 100		> 100		> 100		> 100		> 100		> 100		> 100		> 100		> 100		> 100
CCOC(=O)c1nc2ccccc2nc1NCc1ccc(Cl)cc1Cl		> 100		> 100		> 100		> 100		> 100		> 100		> 100		> 100		> 100		> 100
NC(=O)C1=CC2C3C=CC2(O)C(=O)OC3O1 (stereo not given)		18.5		11.7		20.9		59.3		17		28.6		40.5		15.7		5.57		60.9
CC(C)C1CC(CO)(CNc2cc(Cl)nc(N)n2)C1 (stereo not given)		> 100		> 100		> 100		65.9		> 100		> 100		> 100		> 100		> 100		> 100
O=[N+]([O-])/C=C/c1cn(CCCCCn2cc(/C=C/[N+](=O)[O-])c3ccccc32)c2ccccc12		1.62		5.81		15.6		3.86		> 53.6		2.57		3.89		13.9		7.99		24.2

SMILES	GI50 (MCF7 breast) [µM]	TGI (MCF7 breast) [µM]	GI50 (IGROV1 ovarian) [µM]	TGI (IGROV1 ovarian) [µM]	GI50 (SF-268 CNS) [µM]	TGI (SF-268 CNS) [µM]	GI50 (A498 renal) [µM]	TGI (A498 renal) [µM]	GI50 (CAKI-1 renal) [µM]	TGI (CAKI-1 renal) [µM]	GI50 (SW-620 colon) [µM]	TGI (SW-620 colon) [µM]	GI50 (U251 CNS) [µM]	TGI (U251 CNS) [µM]	GI50 (ACHN renal) [µM]	TGI (ACHN renal) [µM]	GI50 (HS 578T breast) [µM]	TGI (HS 578T breast) [µM]	GI50 (SNB-19 CNS) [µM]	TGI (SNB-19 CNS) [µM]
COc1ccc(C=Nc2ccc(-c3nc4ccccc4[nH]3)cc2)cc1OC		> 100		> 100		> 100		> 100		> 100		> 100		> 100		> 100		> 100		> 100
CC(C)=CCC[C@@H](C)c1c2[nH]c3ccccc3sc-2c(C)c(=O)c1=O		> 75		26.3		> 35.3		35.5		35.2		> 75		> 75		10.8		> 48.9		> 75
CC1(C)CCC2(C(=O)OC3OC(CO)C(O)C(O)C3O)CCC3(CO)C(=CCC4C5(C)CC(O)C(O)C(C)(C(=O)OC6OC(CO)C(O)C(O)C6O)C5CCC43C)C2C1 (stereo not given)		> 100		> 100		> 100		> 100		> 100		> 100		> 100		> 100		> 100		> 100
CC/C(Cl)=N\OC(=O)Nc1ccc(F)cc1F		44.9		31.9		> 57.7		74.8		3.09		2.95		55.6		3.78		> 69.5		> 56.6
COc1ccc(C(=O)c2ccc(-n3cc(/C=C/[N+](=O)[O-])c4ccccc43)cc2)cc1		> 34.2		26.2		> 54.1		44.9		> 52.3		> 100		24.9		52		19.9		> 72.4
COC(=O)c1ccc(/C=C2\CCc3ccccc3C2=O)cc1		> 100		> 100		> 100		> 100		> 100		> 100		> 100		> 100		> 100		> 100
O=S(=O)(O)C1CCC(O)C2[N-]CCCC21.O=S(=O)(O)C1CCC(O)C2[N-]CCCC21.[Zn+2] (stereo not given)		> 100		> 100		> 100		> 100		> 100		> 100		> 100		> 100		> 100		> 100
O=S1(=O)CCN(c2ccccc2CC(c2c[nH]c3ccccc23)c2c[nH]c3ccccc23)CC1		> 100		33.4		62.2		39.9		> 85.2		21.1		24		> 91.7		42.7		> 100
C=C1CC(Cn2cc(Br)c(=O)[nH]c2=O)(c2ccc(-c3ccccc3)cc2)OC1=O (stereo not given)		1.75		2.96		4.64		2.33		4.41		1.58		18.4		3.24		> 20.5		26.8
COc1cc(-n2cc(-c3cc(O)c(C/C=C(\C)CCC=C(C)C)c(O)c3)nn2)cc2c1O[C@]1(C)CC[C@@H](O)C(C)(C)[C@H]1C2	0.338	19.2	1.85	28.5	2.03	30.4	0.298	32.8	0.43	> 100	0.726	10.7	0.0959	10.9	1.79	26.6	0.0452	3.41	1.89	40.3
CCCCCCCCCCCCCCCCOCC(Cl)COP(=O)(O)OP(=O)(O)OCC1OC(n2cnc3c(N)ncnc32)C(O)C1O (stereo not given)		> 100		> 100		> 100		> 100		> 100		> 100		> 100		> 100		> 100		> 100
CC(C)(C)OC(=O)N1CCc2c(n(C/C=C/c3ccccc3)[nH]c2=O)C1		> 100		> 100		> 100		> 100		> 100		> 100		> 100		> 100		> 100		> 100
Cc1ccc(/C=C2\CN(C)CC3C2=NC(=S)NC3c2ccc(C)cc2)cc1 (stereo not given)		> 100		> 80.1		> 100		> 100		> 100		> 100		> 87.4		> 100		> 100		> 100
O=P(O)(O)CN1CCNCCN(CP(=O)(O)O)CCNCC1		> 100		> 51.2		> 100		> 100		> 100		> 100		> 100		> 100		> 100		> 100
CC(=O)CC1(C)OC(N)=C(C#N)C1(C#N)C#N (stereo not given)		> 100		> 100		> 100		> 100		> 100		> 100		> 100		> 100		> 100		> 100
